{
  "source": "patent US6391901B1",
  "about": "“Thrombin inhibitors” (Eli Lilly and Company, priority 1997, dated 2002)",
  "note": "Counter-ions that a name gives are not always drawn.",
  "data": [
    {"compound": "COc1cc(Cc2c(-c3ccc(NS(=O)(=O)c4ccccc4)cc3)sc3cc(O)ccc23)ccc1CN1CCCC1", "note": "(as salt: oxalate) [Example 31, 6-Hydroxy-3-[3-methoxy-4-(1-pyrrolidinylmethyl)benzyl]-2-[4-(phenylsulfonylamino)phenyl]benzo[b]thiophene Oxalate]", "values": [
      {"measurement": "melting point", "value": "150 °C (dec.)"}
    ]},
    {"compound": "COc1cc(C(=O)c2c(-c3ccc(NS(=O)(=O)c4ccccc4)cc3)sc3cc(O)ccc23)ccc1CN1CCCC1", "note": "(as salt: oxalate) [Example 32, 6-Hydroxy-2-[4-(phenylsulfonylamino)phenyl)benzo[b]thiophen-3-yl 3-Methoxy-4-(1-pyrrolidinylmethyl)phenyl Ketone Oxalate]", "values": [
      {"measurement": "melting point", "value": "180 °C (dec.)"}
    ]}
  ]
}
